Source: ChEMBL document CHEMBL1142931, “Vascular disrupting agents” (Bioorg Med Chem, 2007)

Species: Homo sapiens
Assay: Half life in human assessed as ZD-6126-phenol
Format: ADME, organism-based
Conditions: in vivo

`COc1cc2c(c(OC)c1OC)-c1ccc(OP(=O)(O)O)cc1[C@@H](NC(C)=O)CC2` [ZD-6126] showed a t1/2 of 2 h.
